Data set [1] can be described thus: Metabolite identification in urine of male, bile duct-cannulated rats after intravenous dosing. It is filed as in vivo, rat. The note with it: carbon 14 labeled, intravenous 20 mg/kg in saline, urine collected over 24 hours. How it is done:
Purification of 3-(2-Phenethyleneamino)-6-hydroxymethyl-1-(2-methyl-6-amino-3-methylenecarboxamidomethyl)pyrazin-2-one from male, bile duct-cannulated rats.
(§1) Rats were dosed intravenously with carbon 14 labeled [drawing 16] at 20 mg/kg in saline at 1 mL/kg. Bile and urine were collected periodically over 24 hours. Aliquots of these were analyzed for total radioactivity. Urine was also fractionated by HPLC using Zorbax XDB-C8 column eluted with 0.1% trifluoroacetic acid-water and acetonitrile gradient, and the fractions analyzed by mass spectrometry.

The test system of data set [2] is thrombin. As to the kind of experiment: Bioassay of HPLC urine fractions for inhibitory effect on thrombin activity. In kind it is biochemical. The settings on record: urine HPLC fraction from rats, evaporated to dryness. How it is done:
as §1
In another procedure, the urine was fractionated by HPLC. An aliquot of the fractions was assayed for total radioactivity, and the remaining volume was evaporated to dryness, under nitrogen, and bioassayed for inhibitory effect on the thrombin activity.

Take `Cc1nc(N)ccc1CNC(=O)Cn1c(C)cnc(NCCc2ccccc2)c1=O`: the “metabolite in urine (site of hydroxylation)” value in data set [1] was “hydroxylation on the methylpyrazinone moiety”.
As to `Cc1nc(N)ccc1CNC(=O)Cn1c(CO)cnc(NCCc2ccccc2)c1=O` [6-HYDROXYMETHYL-3-(2-PHENETHYLAMINO )-1-(2-AMINO-6-METHYL-5-METHYLCARBOXAMIDOMETHYLPYRIDINYL)-PYRAZINONE], the “inhibitory effect on the thrombin activity” value in data set [2] is recorded as “significant inhibitory activity”.
